Laboratory results taken from patent US6730703B2, “Dual inhibitors of cholesteryl ester and wax ester synthesis for sebaceous gland disorders” (Warner-Lambert Company, priority 2000, dated 2004).
Like-named read-outs stand apart in the source and are kept apart here.

What was measured:
[1] = system: AFAT (acyl-Coenzyme A: fatty alcohol acyltransferase)
Protocol: (§1) a) The rats or mice are anesthetized with ether, and the PGs are removed and placed in a beaker containing wash buffer (ice cold).
(§2) b) As soon as possible, the PGs are homogenized in a Potter-Elvehjem homogenizer with 15 mL of homogenizing buffer. The homogenizer is kept in a small ice bath. Work the plunger until it reaches the bottom of the tube 10 times.
(§3) k) Add 1 mL of 0.2 M KPO4 buffer pH 7.4 to half of the bottles in an ice bath. Scrape the whole pellet loose with a teflon rod and transfer to a 15 mL homogenizer. Wash bottle with 1 mL of buffer and transfer to one of the bottles that has a pellet but no buffer. Homogenize gently by hand. Aliquot into Cryovials (Nalgene™) and store in liquid nitrogen. The microsomes remain active for at least 2 years.
(§4) m) Determine the protein concentration of the homogenate by the Lowry method. […] Desired protein concentration is 20 mg/mL rat or mouse PG microsomes.
(§5) C. [4-^14C]Cholesteryl or [(1-^14C]Hexadecanol. Evaporate the toluene from the vial. Re-suspend radiolabel in 0.1 mL 2-propanol.
(§6) D. Oleoyl Coenzyme A (1 mM in sucrose buffer). Dissolve 10.3 mg oleoyl coenzyme A (Sigma 0-7002) in 10 mL sucrose buffer. Note: Store at −10° C. Dilute 5-fold to 200 μM with sucrose buffer just prior to assay.
(§7) E. [^14C]Cholesteryl—Labeled Microsomes or [^14C]Hexadecanol—Labeled Microsomes. Dilute a vial of stock microsomes to 4 mg protein per milliliter with sucrose buffer. For every 1 mL of diluted microsome solution, use glass syringe (Hamilton, [sequence], 1702) and transfer 2.5 μL of radiolabel to diluted microsomes by submerging syringe needle in the microsome solution and swirling while ejecting syringe contents. Flush syringe once with microsome solution. Determine dpm in small aliquot of solution by liquid scintillation counting (LSC). Need approximately 4×10^6 dpm/mL in the microsome solution.
(§8) G. Test Compound Solutions. Test compounds are weighed to make either 1 mM or 4 mM stock solutions in dimethylsulfoxide (DMSO). These solutions are used to prepare DMSO solutions containing 40 times the concentration of compound to be tested. These solutions may be prepared 24 hours prior to the assay and stored at room temperature.
(§9) a) Duplicate samples are prepared by adding 5 μL of test compound solution to each of two assay tubes. Controls and blanks receive 5 μL of DMSO. […]
(§10) h) Transfer 40 μL of the acidified solution to the pre-absorbent area of Whatman LK6D silica gel TLC plates, which are then dried on a hot plate for 5 minutes and developed in trimethylpentane/diethyl ether/acetic acid (75:25:2). The bands containing radiolabel are detected and quantitated by phosphorimaging with a Molecular Dynamics phosphorimager.
(§11) TLC will resolve free alcohol from its ester. The relative amount of radioactivity in each of those bands is determined by phosphorimaging. […]

[2] = molecular target: AFAT (acyl-Coenzyme A: fatty alcohol acyltransferase); test: Inhibition of wax ester (WE) synthesis in mouse preputial gland microsomes; details: for IC50: read-out: Inhibition of Wax Ester (WE) Synthesis IC50, mouse preputial microsome preparation, [14C]hexadecanol label, oleoyl coenzyme A
Protocol: as §1, §2, §3, §4, §5, §6, §7, §8, §9, §10, §11

[3] = system: ACAT (acyl-Coenzyme A: cholesteryl acyltransferase)
Protocol: as §5
D. Oleoyl Coenzyme A (1 mM in sucrose buffer). […] Note: Store at −10° C. Dilute 5-fold to 200 μM with sucrose buffer just prior to assay.
E. [^14C]Cholesteryl—Labeled Microsomes or [^14C]Hexadecanol—Labeled Microsomes. Dilute a vial of stock microsomes to 4 mg protein per milliliter with sucrose buffer. […] Flush syringe once with microsome solution. Determine dpm in small aliquot of solution by liquid scintillation counting (LSC). Need approximately 4×10^6 dpm/mL in the microsome solution.
G. Test Compound Solutions. Test compounds are weighed to make either 1 mM or 4 mM stock solutions in dimethylsulfoxide (DMSO). These solutions are used to prepare DMSO solutions containing 40 times the concentration of compound to be tested. […]
as §10, §11

Inhibition of WE synthesis in mouse preputial gland microsomes (in words) [1]	IC50 [2] [µM]	Inhibition of liver ACAT (in words) ([3]; inhibition curves of FIG. 1, printed as rat liver ACAT)	IC50 ([3]; read-out: Inhibition of Cholesteryl Ester (CE) Synthesis IC50, mouse liver microsome preparation, [14C]cholesteryl label, oleoyl coenzyme A) [µM]	Inhibition of WE synthesis in mouse preputial gland microsomes (in words) ([2]; inhibition curves of FIG. 1, 0.01 μM to 100 μM)	Compound
unexpectedly inhibits WE synthesis	13.9	potent inhibitors of rat liver ACAT	0.09		CC(C)c1cc(C(C)C)c(CC(=O)NS(=O)(=O)Oc2c(C(C)C)cccc2C(C)C)c(C(C)C)c1 [Compound 1, [(2,4,6-triisopropyl-phenyl)-acetyl]-sulfamic acid 2,6-diisopropyl-phenyl ester]
	> 100			no inhibition of WE synthesis	CCCCCCCCCCC(C)(C)C(=O)Nc1c(OC)cc(OC)cc1OC [Compound 2, 2,2-dimethyl-N-(2,4,6-trimethoxyphenyl)-dodecanamide]
